According to PMC9817077, “Simple, Reliable Protocol for High-Yield Solubilization of Seedless Amyloid-β Monomer” (ACS Chemical Neuroscience, 2022):

Columns and labels:
[1] = Global fitting of ThT self-assembly curves to nucleated polymerization models; type: physicochemical; settings: global fit
Text: To test whether an equivalent analysis favored
106 four models to ﬁt the experimental data. Each model was globally ﬁtted, with all kinetic 107 parameters shared across initial monomer concentrations.
Firstly, we tested the Oosawa model (19). In this model, ﬁbrils form by primary nucle-ation, which behaves as annthc -order multimerization process. Fibrils then grow by stepwise addition of monomers to the ﬁbril end, which behaves as a second-order association between a ﬁbril and a free monomer. This model admits the exact solution (13, 20) […]
m(0) = 1−sech2/nc 2 λt , (S2)
109 Here, kn is the rate parameter for primary nucleation and k+ is the rate parameter for 110 elongation. As shown in Figure S8(a), the Oosawa model results in a poor ﬁt. Speciﬁcally, 111 the lack of a secondary process means the model cannot produce exponential early-time 112 scaling, and lacks a pronounced lag phase. This […] our observation of exponential 113 early-time kinetics, and the ﬁndings of previous work (16).
Next, we tested models that included a secondary process. Three such processes were considered: fragmentation (13, 14, 21), single-step secondary nucleation (14), and saturable multi-stepsecondarynucleation(17,18). Inallthreecases, theapproximatesolutionhasthe same mathematical form, and the models diﬀer only in the deﬁnitions of certain parameters.
The general equation is (13, 14, 21)
M(t) B− +C+eκt κ˜k∞e−k∞t, (S4) m(0) = 1− B+ +C+eκt B− +C+
Here, λ has the same deﬁnition as Eq. (S3), andκ and k∞ have model-speciﬁc deﬁnitions.
Since fragmentation can be treated as a special case of secondary nucleation (14, 16), we begin with the deﬁnitions for single-step secondary nucleation, […]
114 where k2 is the (n2 + 1)th-order rate constant for formation of a secondary ﬁbril nucleus 115 of eﬀective sizen2, at a rate also proportional to the concentration of monomers already 116 incorporated into ﬁbrils (14).
The correct solution for fragmentation can be obtained by taking the limit n2→ 0 (in practice, setting n2 = 10−3) and substituting (13, 14, 21)
117 wherekf is the rate constant for fragmentation at each possible break point along the length 118 of the ﬁbril. When ﬁtting the fragmentation-dominated model, the value ofkf was con-119 strained such thatkfk+ =knk+× (10−5.5 M)nc/(10−8 M), a constraint that was also applied 120 in (16). This ensures that fragmentation becomes dominant when the ﬁbril mass concen-121 tration M(t)≈ 10 nM for a reaction with initial monomer concentration m(0) =√10 µM, 122 forcing the ﬁtting algorithm to maintain an appreciable level of fragmentation. Without 123 this constraint, kf is simply minimized in order to attain a high concentration-dependence, […]
124 resulting in a ﬁt very similar to that obtained for the Oosawa model (16). […]
used with the modiﬁed deﬁnitions
A(t) =− λ2nc− 2k2k+K2m(0)log [K2 +m(t)n2]n2
125 where K2 is the eﬀective Michaelis constant for secondary nucleation, and2F1 is a hyper-126 geometric function. Note that, unlike traditional Michaelis-Menten kinetics, the rate of 127 saturable secondary nucleation has an nth2 -order rather than a linear dependence on m(t) in 128 the low concentration limit (15, 17, 18).
129 As shown in Figure S8(b), fragmentation succeeds in producing exponential early-time 130 scaling and a pronounced lag phase, but also results in a weak concentration-dependence 131 and an overly sharp approach to the maximum ﬂuorescence intensity. The latter two issues 132 are caused by the insensitivity of fragmentation to depletion of the free monomer, and 133 also lead to a high ﬁtted reaction order of primary nucleation (nc = 5.23), an attempt to 134 compensate for the weak concentration scaling of the secondary process. Had the value 135 of kf been left unconstrained, the ﬁt would instead have done this by minimising the role 136 of the concentration-insensitive secondary pathway, producing a ﬁt similar to Figure S8(a).
138 better ﬁt, as it is able to simultaneously produce exponential early-time scaling, the correct […]

[2] = cited from earlier work
Text: The concentration dependence is significant as it reflects the ... || The nature and reaction order of the dominant processes responsible for generating fibrils can be inferred from the scaling exponent γ, which relates the polymerization half-time to the initial monomer concentration, τhalf ∝ m0^γ. If secondary processes are negligible so that primary nucleation dominates, then γ = −nc/2, where nc is the effective order of primary nucleation.[91],[92] If most new fibrils are formed by fragmentation of existing fibrils, then γ = −1/2.[88],[89]

[3] = Storage stability at −80 °C (ThT half-time against storage time); type: physicochemical
Text: To more quantitatively assess this stability, the mean fibrillization half-time τhalf of each ThT experiment was plotted against the storage time of the corresponding aliquot.
Each point corresponds to the average fibrillization half-time of a single ThT experiment; the error bars, which in some cases are too small to show, represent a single standard deviation. The fitted curve is an exponential decay of the form τhalf = τhalf^′e^–kmodt, where τhalf is the self-assembly half-time, τhalf^′ is the half-time prior to the effects of storage, kmod is the proportional rate of change of τhalf during storage, and t is the storage time. See text for values of the fitted parameters and Table S2 for the correspondence between the color scheme and sample ID.

[4] = LC–MS check for chemical modification at high pH; type: physicochemical; settings: 50 mM NaOH
[5] = fluorescence-based assays, cited from earlier work
Protocol: Aβ samples that are stored in a lyophilized form are often re-solubilized by treatment with a dilute base such as 1–10 mM NaOH or 0.02–1% NH4OH.[41],[46],[48],[53],[56],[57] These treatments would be expected to give a pH of 10.6–12.0, in the absence of any partial neutralization of the solvent. […] In addition, many st ...

Aβ(1-42): Ultrapure recombinant Aβ(1-42) purchased from rPeptide, lyophilized from HFIP; disordered amyloid-forming peptide
nc ([1]; fragmentation model, kf constrained): 5.23 | nc ([1]; primary nucleation only (Oosawa model), 1.5–6.0 μM, sample 50-5-N-13): 2.37 | K2 (effective Michaelis constant for secondary nucleation) ([1]; saturable secondary nucleation): 2.74 µM | n2 ([1]; saturable secondary nucleation): 2.37 | nc ([1]; saturable secondary nucleation, nc = n2 constrained): 2.37 | n2 ([1]; single-step secondary nucleation): 1.68 | nc ([1]; single-step secondary nucleation, nc = n2 constrained): 1.68 | scaling exponent γ ([2]; high-quality in-house recombinant preparations, same experimental conditions): ≈ −1.3 | fibrillization half-time τhalf ([2]; in-house recombinant preparations, ref Silvers et al. 75): ≈ 2000 s | period of stability at −80 °C ([3]; 5 min sonication in 50 mM NaOH, frozen in liquid N2): over 39 days | rate constant kmod of decay of the self-assembly half-time during storage ([3]; 5 min sonication in 50 mM NaOH, stored at −80 °C for 1 to 39 days, exponential fit, not significantly different from 0 (P = 0.3011)): 6.53 × 10^–4 day^–1 | time constant τmod ([3]; storage at −80 °C, from exponential fit): 1530 days | difference between mass spectra of samples sonicated for 5 and 30 min [4]: no obvious difference | pH threshold for complete elimination of self-assembly [5]: 11.0–12.0 pH | approximate timescale of limited aggregation ([5]; pH 11.0): several hundred seconds
